Here are results for 51 molecules from patent publication US10039282B2, “Six-membered C—N-bonded aryl sulphide and aryl sulphoxide derivatives as pesticides” (BAYER CROPSCIENCE AKTIENGESELLSCHAFT, priority 2013, dated 2018).

One data set relates to Tetranychus urticae. Nature of the data set: Tetranychus urticae spray test, OP-resistant (bean leaf discs). In kind it is in vivo. The conditions noted are these: 500 g/ha, after 6 days. The method, then: 4. Tetranychus urticae—Spray Test, OP-Resistant
Solvent: 78.0 parts by weight of acetone
• 1.5 parts by weight of dimethylformamide Emulsifier: alkylaryl polyglycol ether
To produce further test concentrations, the preparation is diluted with emulsifier-containing water.
After 6 days, the efficacy in % is determined. 100% means that all the spider mites have been killed; 0% means that none of the spider mites have been killed.

Data set [1] is described as follows: log P by reversed-phase HPLC analogously to OECD Guideline 117. In kind it is physicochemical. The conditions noted are these: for logP (HCOOH): pH 2.7; for logP (neutral): pH 7.8. The method, then: The log P values were determined analogously to OECD Guideline 117 (EC Directive 92/69/EEC) by HPLC (high-performance liquid chromatography) using reversed-phase columns (C 18), by the following methods:
[a] The LC-MS determination in the acidic range is effected at pH 2.7 with 0.1% aqueous formic acid and acetonitrile (contains 0.1% formic acid) as eluents; linear gradient from 10% acetonitrile to 95% acetonitrile. log P^[…] is also referred to as log P(HCOOH). [b] LC-MS determination in the neutral range is effected at pH 7.8 with 0.001 molar aqueous ammonium hydrogencarbonate solution and acetonitrile as eluents; linear gradient from 10% acetonitrile to 95% acetonitrile. log P^[…] is also referred to as log P(neutral).
Calibration is effected with solutions of a homologous series of unbranched alkan-2-ones (having 3 to 16 carbon atoms) with known log P values (log P values determined on the basis of the retention times by linear interpolation between two successive alkanones).

The mark [2] stands for this setting: acidic range, pH 2.7, 0.1% aqueous formic acid/acetonitrile, read-out: logP (HCOOH).
Where [3] appears, read: reversed-phase C18 HPLC column, neutral range, pH 7.8, 0.001 molar aqueous ammonium hydrogencarbonate/acetonitrile, read-out: logP (neutral).
The mark [4] stands for this setting: reversed-phase C18 HPLC column, acidic range, pH 2.7, 0.1% aqueous formic acid/acetonitrile, read-out: logP (HCOOH).

Read-outs that look alike come from different tables or passages of the source.

On to `Cc1cc(F)c(-n2c(C)nc(C(F)(F)F)cc2=O)cc1SCC(F)(F)F` [Example 8], for which the “efficacy (spider mites killed)” value with Tetranychus urticae is 100%.
Still for that read-out and setting: in the case of `Cc1cc(C)c(-n2cnc(C)c(C)c2=O)cc1SCC(F)(F)F` [Example 13] it was 100%; in that of `CCc1cc(=O)n(-c2ccc(C)c([S+]([O-])CC(F)(F)F)c2)cn1` (racemic) [Example 17], 100%; in that of `Cc1cc(F)c(-n2cnc(C3CC3)cc2=O)cc1[S+]([O-])CC(F)(F)F` (racemic) [Example 7], 100%.
For the molecule `Cc1cc(F)c(NC(=O)/C=C(\O)C(F)(F)F)cc1SCC(F)(F)F` [XXXI-1, 4,4,4-Trifluoro-N-{2-fluoro-4-methyl-5-[(2,2,2-trifluoroethyl)sulphanyl]phenyl}-3-hydroxybut-2-enamide], the chromatographic logP in data set [1] (setting [2]) was 2.77; in data set [1] (setting [3]), 1.43.
In the case of `NC(=CC(=O)Nc1cc(SCC(F)(F)F)c(Br)cc1F)C(F)(F)F` [IIa-5], in data set [1], the “logP (HCOOH)” value amounted to 3.88 and the “logP (neutral)” value was 3.78.
In the case of `Cc1cc(F)c(-n2cnc(C(C)C)cc2=O)cc1[S+]([O-])CC(F)(F)F` (racemic) [Example 52], the “efficacy (spider mites killed)” value in the data set with Tetranychus urticae was 100%.
Turning to `Cc1cc(C)c([S+]([O-])CC(F)(F)F)cc1-n1cnc(C)c(C)c1=O` (racemic) [Example 48], in the data set with Tetranychus urticae, the “efficacy (spider mites killed)” value is on record as 90%.
`Cc1ccc(-n2cnccc2=O)cc1[S+]([O-])CC(F)(F)F` (racemic) [Example 28]: the “efficacy (spider mites killed)” value in the data set with Tetranychus urticae came to 90%.
In the case of `Cc1cc(Cl)c(NC(=O)C=C(O)C(F)(F)F)cc1SCC(F)(F)F` [XXXI-8], in data set [1], the “logP (HCOOH)” value stood at 3.01 and the “logP (neutral)” value amounted to 1.44.
In the same order, the values of `Cc1cc(Cl)c(NC(=O)C=C(N)C(F)(F)F)cc1SCC(F)(F)F` [IIa-8] are 4.05 and 3.99.
For `Cc1cc(C)c(-n2cnc(C3CC3)cc2=O)cc1SCC(F)(F)F` [Example 23], the “efficacy (spider mites killed)” value in the data set with Tetranychus urticae is reported as 100%.
Regarding `Cc1cc(=O)n(-c2cc(SCC(F)(F)F)c(C)cc2C)cn1` [Example 20], the “efficacy (spider mites killed)” value in the data set with Tetranychus urticae stood at 100%.
`NC(=CC(=O)Nc1cc(SCC(F)(F)F)c(Cl)cc1F)C(F)(F)F` [IIa-4]: in data set [1], the “logP (HCOOH)” value came out at 3.83 and the “logP (neutral)” value was found to be 3.73.
For `CCc1cc(=O)n(-c2cc([S+]([O-])CC(F)(F)F)c(C)cc2F)cn1` (racemic) [Example 10], the “efficacy (spider mites killed)” value with Tetranychus urticae is 100%.
Take `Cc1cc(F)c(NC(=O)/C=C(\N)C(F)(F)F)cc1SCC(F)(F)F` [IIa-1, 3-Amino-4,4,4-trifluoro-N-{2-fluoro-4-methyl-5-[(2,2,2-trifluoroethyl)sulphanyl]phenyl}but-2-enamide]: the chromatographic logP in data set [1] (setting [4]) amounted to 3.61; in data set [1] (setting [3]), 3.6.
Consider `CCc1cc(=O)n(-c2cc(SCC(F)(F)F)c(C)cc2C)cn1` [Example 39], for which the “efficacy (spider mites killed)” value in the data set on Tetranychus urticae came out at 100%.
Same read-out and setting: in the case of `Cc1cc(C)c([S+]([O-])CC(F)(F)F)cc1-n1c(C)nc(C(F)(F)F)cc1=O` (racemic) [Example 14] it was 100%.
Consider `CCc1cc(=O)n(-c2ccc(C)c(SCC(F)(F)F)c2)cn1` [Example 43], for which, in the data set with Tetranychus urticae, the “efficacy (spider mites killed)” value was found to be 90%.
For `Cc1cc(C)c(SCC(F)(F)F)cc1NC(=O)/C=C(\N)C(F)(F)F` [IIa-2, 3-Amino-N-[2,4-dimethyl-5-(2,2,2-trifluoroethylsulphanyl)phenyl]-4,4,4-trilluorobut-2-enamide], the chromatographic logP was determined as 3.63 in data set [1] (setting [4]) and 3.61 in data set [1] (setting [3]).
As for `O=C(C=C(O)C(F)(F)F)Nc1cc(SCC(F)(F)F)c(Cl)cc1F` [XXXI-4], in data set [1], the “logP (HCOOH)” value is 2.86 and the “logP (neutral)” value came out at 1.45.
On to `Cc1cc(C)c([S+]([O-])CC(F)(F)F)cc1-n1cnc(C2CC2)cc1=O` (racemic) [Example 35], for which the “efficacy (spider mites killed)” value in the data set with Tetranychus urticae came to 90%.
`NC(=CC(=O)Nc1cc(SCC(F)(F)F)c(Cl)cc1Cl)C(F)(F)F` [IIa-3]: in data set [1], the “logP (HCOOH)” value was 4.24 and the “logP (neutral)” value was found to be 4.13.
Consider `Cc1cc(C)c(SCC(F)(F)F)cc1NC(=O)/C=C(\O)C(F)(F)F` [XXXI-2, N-[2,4-Dimethyl-5-(2,2,2-trifluoroethylsulphanyl)phenyl]-4,4,4-trifluoro-3-hydroxybut-2-enamide], for which the chromatographic logP in data set [1] (setting [2]) is 2.87.
`O=C(C=C(O)C(F)(F)F)Nc1cc(SCC(F)(F)F)c(Cl)cc1Cl` [XXXI-3]: in data set [1], the “logP (HCOOH)” value worked out at 3.13.
`CCc1cc(=O)n(-c2cc(SCC(F)(F)F)c(C)cc2F)cn1` [Example 57]: in the data set with Tetranychus urticae, the “efficacy (spider mites killed)” value came out at 100%.
As for `NC(=CC(=O)Nc1ccc(Cl)c(SCC(F)(F)F)c1)C(F)(F)F` [IIa-7], in data set [1], the “logP (HCOOH)” value turned out to be 3.66 and the “logP (neutral)” value is recorded as 3.65.
Regarding `Cc1cc(C)c(SCC(F)(F)F)cc1NC(=O)C=C(N)C(F)F` [IIa-10], in data set [1], the “logP (HCOOH)” value is recorded as 3.24 and the “logP (neutral)” value is given as 3.15.
The like results for `Cc1cc(F)c(NC(=O)C=C(N)C(C)(F)F)cc1SCC(F)(F)F` [IIa-11] were, in that order, 3.55 and 3.49.
As for `Cc1cc(C)c(-n2cnc(C(C)(F)F)cc2=O)cc1SCC(F)(F)F` [Example 51], in the data set with Tetranychus urticae, the “efficacy (spider mites killed)” value came to 100%.
Take `Cc1cc(C)c(SCC(F)(F)F)cc1NC(=O)C=C(O)C(F)F` [XXXI-10]: the “logP (HCOOH)” value in data set [1] is listed as 2.53.
On to `O=c1cc(C(F)(F)F)ncn1-c1cc([S+]([O-])CC(F)(F)F)c(Cl)cc1F` (racemic) [Example 29], for which, in the data set with Tetranychus urticae, the “efficacy (spider mites killed)” value amounted to 100%.
In the case of `Cc1cc(C)c(SCC(F)(F)F)cc1NC(=O)C=C(O)C(F)(F)C(F)(F)F` [XXXI-14], in data set [1], the “logP (neutral)” value was 1.63.
For `O=c1cc(C(F)(F)F)ncn1-c1ccc(Cl)c(SCC(F)(F)F)c1` [Example 54], the “efficacy (spider mites killed)” value in the data set on Tetranychus urticae worked out at 100%.
Take `Cc1cc(F)c(NC(=O)C=C(O)C(F)F)cc1SCC(F)(F)F` [XXXI-9]: the “logP (HCOOH)” value in data set [1] is given as 2.47.
For the molecule `Cc1cc(F)c(-n2cnc(C(C)C)cc2=O)cc1SCC(F)(F)F` [Example 31], the “efficacy (spider mites killed)” value in the data set on Tetranychus urticae was found to be 100%.
Still for that read-out and setting: with `Cc1cc(F)c(-n2c(C)nc(C(F)(F)F)cc2=O)cc1[S+]([O-])CC(F)(F)F` (racemic) [Example 19] the figure was 100%.
Take `Cc1ccc(NC(=O)C=C(N)C(F)(F)F)cc1SCC(F)(F)F` [IIa-6]: in data set [1], the “logP (HCOOH)” value was determined as 3.58 and the “logP (neutral)” value amounted to 3.49.
Turning to `O=c1cc(C(F)(F)F)ncn1-c1cc(SCC(F)(F)F)c(Cl)cc1F` [Example 16], the “efficacy (spider mites killed)” value in the data set on Tetranychus urticae was 100%.
Turning to `Cc1cc(F)c(-n2cnc(C(F)(F)F)cc2=O)cc1SCC(F)(F)F` [Example 1, 3-{2-Fluoro-4-methyl-5-[(2,2,2-trifluoroethyl)sulphanyl]phenyl}-6-(trifluoromethyl)pyrimidin-4(3H)-one], the chromatographic logP in data set [1] (setting [4]) came out at 3.42; in data set [1] (setting [3]), 3.4. Besides, the “efficacy (spider mites killed)” value in the data set on Tetranychus urticae stood at 100%.
As to `Cc1cc(F)c(-n2cnc(C(F)F)cc2=O)cc1SCC(F)(F)F` [Example 32], the “efficacy (spider mites killed)” value with Tetranychus urticae was 100%.
As to `Cc1cc(C)c(SCC(F)(F)F)cc1NC(=O)C=C(N)C(C)(F)F` [IIa-12], in data set [1], the “logP (HCOOH)” value amounted to 3.52 and the “logP (neutral)” value is 3.40.
With `Cc1cc(F)c(NC(=O)C=C(O)C(C)(F)F)cc1SCC(F)(F)F` [XXXI-11], the “logP (HCOOH)” value in data set [1] came to 2.72.
Turning to `Cc1cc(C)c(-n2cnc(C(F)(F)C(F)(F)F)cc2=O)cc1SCC(F)(F)F` [Example 36], the “efficacy (spider mites killed)” value in the data set on Tetranychus urticae was determined as 100%.
Turning to `O=C(C=C(O)C(F)(F)F)Nc1cc(SCC(F)(F)F)c(Br)cc1F` [XXXI-5], the “logP (HCOOH)” value in data set [1] worked out at 2.93.
Same read-out and setting: with `O=C(C=C(O)C(F)(F)F)Nc1ccc(Cl)c(SCC(F)(F)F)c1` [XXXI-7] the figure was 2.84.
Consider `CCc1cc(=O)n(-c2cc([S+]([O-])CC(F)(F)F)c(C)cc2C)cn1` (racemic) [Example 24], for which the “efficacy (spider mites killed)” value in the data set on Tetranychus urticae is recorded as 90%.
For the molecule `Cc1ccc(NC(=O)C=C(O)C(F)(F)F)cc1SCC(F)(F)F` [XXXI-6], in data set [1], the “logP (HCOOH)” value worked out at 2.80.
For `O=c1cc(C(F)(F)F)ncn1-c1cc(SCC(F)(F)F)c(Br)cc1F` [Example 15], the “efficacy (spider mites killed)” value in the data set on Tetranychus urticae was found to be 100%.
With `Cc1cc(F)c(NC(=O)C=C(N)C(F)F)cc1SCC(F)(F)F` [IIa-9], in data set [1], the “logP (HCOOH)” value is 3.23 and the “logP (neutral)” value turned out to be 3.21.
Take `Cc1cc(F)c(-n2cnc(C3CC3)cc2=O)cc1SCC(F)(F)F` [Example 37]: the “efficacy (spider mites killed)” value in the data set on Tetranychus urticae came out at 100%.
